Patent US12162935B2, “Regimens, compositions and methods with capsaicin and TNF-alpha inhibitor” (priority 2018, dated 2024)

Assays:
rat cochlea = test: Cochlear gene expression by qPCR after noise exposure; format: in vivo
Description: Cochleae were pared down to the bone, crushed in liquid nitrogen followed by extraction in 500 μl of TRI reagent. 0.1 ml of chloroform was added, and the tube was shaken vigorously for 15 seconds and centrifuged at 12,000×g for 15 min. RNA was extracted by washing the pellet with 0.5 ml ice-cold isopropanol followed by cold 75% treated ethanol. The ethanol was removed and the tube was air dried briefly. The RNA pellet was resuspended in nuclease free water and RNA levels were determined using optical density readings corresponding to wavelengths of 260 nm, 280 and 320 nm using a spectrophotometer (Eppendorf BioPhotometer, Hamburg, Germany).
500 ng of total RNA was converted to cDNA using iScript cDNA Synthesis Kit (Bio-Rad, Hercules, CA). The reaction mixture was set up as follows: Ing of total RNA, 4 μl of iScript reaction mix, 1 μl of iScript reverse transcriptase, nuclease free water to bring the total volume to 20 μl. The reaction mix was incubated at 25° C. for 5 min, 42° C. for 30 minutes and 85° C. for 5 minutes. This cDNA reaction mix was used for real time PCR, as described previously [Mukherjea et al., 2006]. Gene specific primer pairs were used for the various reactions and mRNA expression levels were normalized to the levels of GAPDH. The primer sets were purchased from Sigma Genosys (St. Louis, MO), and were as follows: […]

UB/OC-1 cells = test: Western blot of STAT1, STAT3 and JAK2 phosphorylation; format: cell-based, mouse
Wistar rats = test: ABR threshold shifts, noise induced hearing loss (NIHL); format: in vivo, rat
Description: Male Wistar rats (150-250 gm) were used for this study under an animal care protocol approved by the Laboratory and Animal Care and Use Committee (SIU School of Medicine). Pre-treatment ABRs were performed. Animals were then treated according to the experimental paradigm. Prevention strategy: consisted of administration of ETA either intra-tympanic ally (IT) (250 μg/50 μl) or subcutaneously (sc) (3 mg/kg) or PBS (IT-50 μl or sc-1 ml) either 3 days or 7 days prior to noise exposure (NE).
Animals were exposed to noise (NE), and then provided ETA treatments either IT or SC at either 2 h or 24 h post noise injury. Post treatment ABR thresholds were determined at 21 days post noise exposure and cochleae were excised for morphological, molecular and biochemical studies. Cochleae used for RNA preparations were flushed immediately with RNA later and kept in RNA later for 24 h at 4° C. Those used for immunohistochemical studies were perfused and fixed with 4% paraformaldehyde, while those used for Scanning electron microscopy (SEM) were perfused and fixed with 2.5% glutaraldehyde. Cochleae used for whole mounts were decalcified for 7-10 days in 100 mM EDTA at room temperature.
Male Wistar rats were exposed to octave band noise at 122 dB centered at 16 kHz for 1 h under isofluorane anesthesia, with the 3 inch silicon tubes attached to the high frequency transducer resting in the middle ear cavity. This exposure typically results in a 30-50 dB temporary threshold shift (measured as an immediate pre-to-post noise exposure shift in ABR thresholds) across all frequencies; with slightly more elevation at those frequencies around 16 kHz and 20-40 dB permanent threshold shift measured at 21 days post noise exposure at all frequencies. Acoustic stimuli are calibrated using a cloth model rat and a Bruel & Kjaer Pulse System with a ½ inch free-field microphone (B&K model 4191). Baseline noise levels in the test chamber (with background test noise turned off) are typically measured below 20 dB SPL in the 4-40 kHz range.
Pre-treatment ABR thresholds were determined using the high frequency Intelligent Hearing Systems (IHS) on naive rats prior to any treatment or noise exposure for each ear. Animals were tested with a stimulus intensity series that was initiated at 0 dB sound pressure level (SPL) and reached a maximum at 90 dB SPL. The stimulus intensity levels were increased in 10 dB increments, and the evoked ABR waveforms were observed on a video monitor. The auditory stimuli included tone bursts at 8, 16, and 32 kHz with a 10 msec plateau and a 1 msec rise/fall time presented at a rate of 5/sec. Threshold was defined as the lowest intensity capable of evoking a reproducible, visually detectable response with two distinct waveforms and minimum amplitude of 0.5 μV.
Preconditioning of the TRPV1 receptor in the rat cochlea by oral administration of capsaicin is shown here to protect from NIHL. Male Wistar rats weighing 200-250 gms were used. ABRs from naïve rats were recorded. Rats were then treated with oral phosphate buffered saline (PBS—1 ml) or capsaicin (1 ml of 20 mg/ml) starting 24 hrs prior to NE, on the day of NE, and 24 hrs post NE. The final ABRs were recorded 21 days post NE. Cochleae were collected for various biochemical tests and immunohistochemistry. At least 6 animals were used per treatment group. NE caused an ABR threshold shift of 21.6±1.7, 35.5±1.9 and 43.9±2.3 dB threshold shift at 8, 16 and 32 kHz respectively. Oral capsaicin treatment completely protects from NIHL (3.9±1.4, 6.1±1.8 and 8.9±2.1 dB threshold shift at 8, 16 and 32 kHz respectively), there is no significant change in ABR threshold shift compared to control. […] Statistical significance was calculated using one way ANOVA with Tukey's post-hoc analyses, p<0.05 (FIG. 16.A.).
ABR measurements were conducted in naïve male Wistar rats. […]

[1] = capsaicin 2.5 μM 30 min and/or cisplatin 2.5 μM 45 min (FIG. 5.E)
[2] = oral capsaicin 24 hrs prior, day of and 24 hrs post NE, 21 days post NE

SMILES: COc1cc(CNC(=O)CCCC/C=C/C(C)C)ccc1O [capsaicin, 8-methyl-N-vanillyl-trans-6-nonenamide]
- Bax gene expression over oral PBS control (rat cochlea; oral Cap+NE): 0.86±0.1 fold
- COX2 gene expression over oral PBS control (rat cochlea; oral Cap+NE): 0.84±0.2 fold
- NOX3 gene expression over oral PBS control (rat cochlea; oral Cap+NE): 0.5±0.2 fold
- TNF-α gene expression over oral PBS control (rat cochlea; oral Cap+NE): 0.9±0.1 fold
- TRPV1 gene expression over oral PBS control (rat cochlea; oral Cap+NE): 0.85±0.2 fold
- Bax gene expression over oral PBS control (rat cochlea; oral capsaicin alone): 0.69±0.1 fold
- COX2 gene expression over oral PBS control (rat cochlea; oral capsaicin alone): 1±0.1 fold
- NOX3 gene expression over oral PBS control (rat cochlea; oral capsaicin alone): 0.7±0.2 fold
- TNF-α gene expression over oral PBS control (rat cochlea; oral capsaicin alone): 1±0.15 fold
- TRPV1 gene expression over oral PBS control (rat cochlea; oral capsaicin alone): 0.9±0.1 fold
- JAK2 phosphorylation (UB/OC-1 cells; 2.5 μM, time course): increased activation
- p-STAT1 (UB/OC-1 cells; [1]): 135.4±4%
- p-STAT3 (UB/OC-1 cells; [1]): 173±4%
- p-STAT3/p-STAT1 ratio peak value (UB/OC-1 cells; capsaicin 2.5 μM, reached in 45 min): ~130%
- time of peak STAT1 Ser^727 phosphorylation (UB/OC-1 cells; capsaicin 2.5 μM, returns to baseline by 120 min): 45 min
- p-STAT3/p-STAT1 ratio (UB/OC-1 cells; of control (FIG. 5.F)): 128±4.1%
- Wave 1 amplitude versus sound intensity (Wistar rats; capsaicin 5 mg/kg oral, ETA 1 mg/kg, noise exposure (FIG. 18.B)): partial restoration
- NE threshold shift (Wistar rats; intra-tympanic or oral capsaicin, 21 days after NE): abrogated
- ABR threshold shift at 8 kHz (Wistar rats; [2]): 3.9±1.4 dB
- ABR threshold shift at 16 kHz (Wistar rats; [2]): 6.1±1.8 dB
- ABR threshold shift at 32 kHz (Wistar rats; [2]): 8.9±2.1 dB
- ABR threshold shift at 8 kHz (Wistar rats; oral capsaicin alone, no NE): 1±1.1 dB
- ABR threshold shift at 16 kHz (Wistar rats; oral capsaicin alone, no NE): 1±1.1 dB
- ABR threshold shift at 32 kHz (Wistar rats; oral capsaicin alone, no NE): 3±1.6 dB
